Test results published in ChEMBL document CHEMBL4219190, “Studies on synthesis of novel pyrido[2,3-d]pyrimidine derivatives, evaluation of their antimicrobial activity and molecular docking” (Bioorg Med Chem Lett, 2018).
Values after ≈ are worked out from the molar mass of the structure shown. Each block holds one compound with its values, some of them ahead of it. Active and inactive are the calls of the source. No cut-off for these calls is given here.

Legend:
Bacillus subtilis [1] = test: Bactericidal activity against Bacillus subtilis MTCC 121 incubated for 24 hrs followed by transfer of microbial suspension to Mueller Hinton agar plates and measured after 24 hrs post transfer; type: functional
Bacillus subtilis [2] = test: Antibacterial activity against Bacillus subtilis MTCC 121 after 24 hrs by well diffusion method; type: functional
Staphylococcus aureus [3] = test: Antibacterial activity against Staphylococcus aureus MTCC 96 after 24 hrs by well diffusion method; type: functional; settings: MTCC 96, 24 h
Staphylococcus aureus [4] = test: Antibacterial activity against Staphylococcus aureus MLS16 MTCC 2940 after 24 hrs by well diffusion method; type: functional
Micrococcus luteus [5] = test: Antibacterial activity against Micrococcus luteus MTCC 2470 after 24 hrs by well diffusion method; type: functional
Raoultella planticola [6] = test: Antibacterial activity against Klebsiella planticola MTCC 530 after 24 hrs by well diffusion method; type: functional
Escherichia coli [7] = test: Antibacterial activity against Escherichia coli MTCC 739 after 24 hrs by well diffusion method; type: functional
Pseudomonas aeruginosa [8] = test: Antibacterial activity against Pseudomonas aeruginosa MTCC 2453 after 24 hrs by well diffusion method; type: functional
Staphylococcus aureus [9] = test: Bactericidal activity against Staphylococcus aureus MTCC 96 incubated for 24 hrs followed by transfer of microbial suspension to Mueller Hinton agar plates and measured after 24 hrs post transfer; type: functional; settings: MTCC 96, 24 h
Staphylococcus aureus [10] = test: Bactericidal activity against Staphylococcus aureus MLS16 MTCC 2940 incubated for 24 hrs followed by transfer of microbial suspension to Mueller Hinton agar plates and measured after 24 hrs post transfer; type: functional
Micrococcus luteus [11] = test: Bactericidal activity against Micrococcus luteus MTCC 2470 incubated for 24 hrs followed by transfer of microbial suspension to Mueller Hinton agar plates and measured after 24 hrs post transfer; type: functional
Raoultella planticola [12] = test: Bactericidal activity against Klebsiella planticola MTCC 530 incubated for 24 hrs followed by transfer of microbial suspension to Mueller Hinton agar plates and measured after 24 hrs post transfer; type: functional
Escherichia coli [13] = test: Bactericidal activity against Escherichia coli MTCC 739 incubated for 24 hrs followed by transfer of microbial suspension to Mueller Hinton agar plates and measured after 24 hrs post transfer; type: functional
Pseudomonas aeruginosa [14] = test: Bactericidal activity against Pseudomonas aeruginosa MTCC 2453 incubated for 24 hrs followed by transfer of microbial suspension to Mueller Hinton agar plates and measured after 24 hrs post transfer; type: functional
Candida albicans [15] = test: Antifungal activity against Candida albicans MTCC 183 after 24 hrs by well diffusion method; type: functional; settings: MTCC 183, 24 h
Candida albicans [16] = test: Antifungal activity against Candida albicans MTCC 227 after 24 hrs by well diffusion method; type: functional
Candida albicans [17] = test: Antifungal activity against Candida albicans MTCC 854 after 24 hrs by well diffusion method; type: functional
Candida albicans [18] = test: Antifungal activity against Candida albicans MTCC 1637 after 24 hrs by well diffusion method; type: functional
Candida albicans [19] = test: Antifungal activity against Candida albicans MTCC 3018 after 24 hrs by well diffusion method; type: functional; settings: MTCC 3018, 24 h
Candida albicans [20] = test: Antifungal activity against Candida albicans MTCC 3017 after 24 hrs by well diffusion method; type: functional; settings: MTCC 3017, 24 h
Candida albicans [21] = test: Antifungal activity against Candida albicans MTCC 3958 after 24 hrs by well diffusion method; type: functional; settings: MTCC 3958, 24 h
Candida albicans [22] = test: Antifungal activity against Candida albicans MTCC 4748 after 24 hrs by well diffusion method; type: functional; settings: MTCC 4748, 24 h
Candida albicans [23] = test: Antifungal activity against Candida albicans MTCC 7315 after 24 hrs by well diffusion method; type: functional; settings: MTCC 7315, 24 h
Candida parapsilosis [24] = test: Antifungal activity against Candida parapsilosis MTCC 1744 after 24 hrs by well diffusion method; type: functional
[Candida] aaseri [25] = Antifungal activity against Candida aaseri MTCC 1962 after 24 hrs by well diffusion method; type: functional; settings: Yamadazyma aaseri, MTCC 1962, 24 h
Nakaseomyces glabratus [26] = test: Antifungal activity against Candida glabrata MTCC 3019 after 24 hrs by well diffusion method; type: functional; settings: MTCC 3019, 24 h
Pichia kudriavzevii [27] = test: Antifungal activity against Candida krusei MTCC 3020 after 24 hrs by well diffusion method; type: functional; settings: MTCC 3020, 24 h
Pichia sporocuriosa [28] = test: Antifungal activity against Issatchenkia hanoiensis MTCC 4755 after 24 hrs by well diffusion method; type: functional; settings: MTCC 4755, 24 h
Candida albicans [29] = test: Fungicidal activity against Candida albicans MTCC 183 incubated for 24 hrs followed by transfer of microbial suspension to Sabouraud dextrose agar plates and measured after 24 hrs post transfer; type: functional; settings: MTCC 183, 24 h
Candida albicans [30] = test: Fungicidal activity against Candida albicans MTCC 227 incubated for 24 hrs followed by transfer of microbial suspension to Sabouraud dextrose agar plates and measured after 24 hrs post transfer; type: functional
Candida albicans [31] = test: Fungicidal activity against Candida albicans MTCC 854 incubated for 24 hrs followed by transfer of microbial suspension to Sabouraud dextrose agar plates and measured after 24 hrs post transfer; type: functional
Candida albicans [32] = test: Fungicidal activity against Candida albicans MTCC 1637 incubated for 24 hrs followed by transfer of microbial suspension to Sabouraud dextrose agar plates and measured after 24 hrs post transfer; type: functional
Candida albicans [33] = test: Fungicidal activity against Candida albicans MTCC 3017 incubated for 24 hrs followed by transfer of microbial suspension to Sabouraud dextrose agar plates and measured after 24 hrs post transfer; type: functional; settings: MTCC 3017, 24 h
Candida albicans [34] = test: Fungicidal activity against Candida albicans MTCC 3018 incubated for 24 hrs followed by transfer of microbial suspension to Sabouraud dextrose agar plates and measured after 24 hrs post transfer; type: functional; settings: MTCC 3018, 24 h
Candida albicans [35] = test: Fungicidal activity against Candida albicans MTCC 3958 incubated for 24 hrs followed by transfer of microbial suspension to Sabouraud dextrose agar plates and measured after 24 hrs post transfer; type: functional; settings: MTCC 3958, 24 h
Candida albicans [36] = test: Fungicidal activity against Candida albicans MTCC 4748 incubated for 24 hrs followed by transfer of microbial suspension to Sabouraud dextrose agar plates and measured after 24 hrs post transfer; type: functional; settings: MTCC 4748, 24 h
Candida albicans [37] = test: Fungicidal activity against Candida albicans MTCC 7315 incubated for 24 hrs followed by transfer of microbial suspension to Sabouraud dextrose agar plates and measured after 24 hrs post transfer; type: functional; settings: MTCC 7315, 24 h
Candida parapsilosis [38] = test: Fungicidal activity against Candida parapsilosis MTCC 1744 incubated for 24 hrs followed by transfer of microbial suspension to Sabouraud dextrose agar plates and measured after 24 hrs post transfer; type: functional
[Candida] aaseri [39] = Fungicidal activity against Candida aaseri MTCC 1962 incubated for 24 hrs followed by transfer of microbial suspension to Sabouraud dextrose agar plates and measured after 24 hrs post transfer; type: functional; settings: Yamadazyma aaseri, MTCC 1962, 24 h
Nakaseomyces glabratus [40] = test: Fungicidal activity against Candida glabrata MTCC 3019 incubated for 24 hrs followed by transfer of microbial suspension to Sabouraud dextrose agar plates and measured after 24 hrs post transfer; type: functional; settings: MTCC 3019, 24 h
Pichia kudriavzevii [41] = test: Fungicidal activity against Candida krusei MTCC 3020 incubated for 24 hrs followed by transfer of microbial suspension to Sabouraud dextrose agar plates and measured after 24 hrs post transfer; type: functional; settings: MTCC 3020, 24 h
Pichia sporocuriosa [42] = test: Fungicidal activity against Issatchenkia hanoiensis MTCC 4755 incubated for 24 hrs followed by transfer of microbial suspension to Sabouraud dextrose agar plates and measured after 24 hrs post transfer; type: functional; settings: MTCC 4755, 24 h
Bacillus subtilis [43] = test: Antibiofilm activity against Bacillus subtilis MTCC 121 after 24 hrs by crystal violet staining-based assay; type: functional, organism-based
Staphylococcus aureus [44] = test: Antibiofilm activity against Staphylococcus aureus MTCC 96 after 24 hrs by crystal violet staining-based assay; type: functional, organism-based; settings: Staphylococcus aureus, MTCC 96, 24 h; read-out: IC50
Staphylococcus aureus [45] = test: Antibiofilm activity against Staphylococcus aureus MLS16 MTCC 2940 after 24 hrs by crystal violet staining-based assay; type: functional, organism-based
Pseudomonas aeruginosa [46] = test: Antibiofilm activity against Pseudomonas aeruginosa MTCC 2453 after 24 hrs by crystal violet staining-based assay; type: functional, organism-based
Raoultella planticola [47] = test: Antibiofilm activity against Klebsiella planticola MTCC 530 after 24 hrs by crystal violet staining-based assay; type: functional, organism-based
Candida albicans [48] = test: Inhibition of ergosterol in Candida albicans MTCC 183 after 20 hrs by UV spectrophotometric method; type: functional, organism-based

MIC (Bacillus subtilis [2]): inactive | MIC (Staphylococcus aureus [3]): 31.2 mg/L (≈ 71.2 µM) | MIC (Staphylococcus aureus [4]): inactive | MIC (Micrococcus luteus [5]): inactive | MIC (Escherichia coli [7]): inactive | MIC (Pseudomonas aeruginosa [8]): inactive | MIC (Candida albicans [15]): 31.2 mg/L (≈ 71.2 µM) | MIC (Candida albicans [16]): inactive | MIC (Candida albicans [17]): inactive | MIC (Candida albicans [18]): inactive | MIC (Candida albicans [19]): 15.6 mg/L (≈ 35.6 µM) | MIC (Candida albicans [20]): 31.2 mg/L (≈ 71.2 µM) | MIC (Candida albicans [21]): 31.2 mg/L (≈ 71.2 µM) | MIC (Candida albicans [22]): 62.5 mg/L (≈ 143 µM) | MIC (Candida albicans [23]): 31.2 mg/L (≈ 71.2 µM) | MIC (Candida parapsilosis [24]): inactive | MIC ([Candida] aaseri [25]): 31.2 mg/L (≈ 71.2 µM) | MIC (Nakaseomyces glabratus [26]): 15.6 mg/L (≈ 35.6 µM) | MIC (Pichia kudriavzevii [27]): 31.2 mg/L (≈ 71.2 µM) | MIC (Pichia sporocuriosa [28]): 15.6 mg/L (≈ 35.6 µM) | IC50 (Bacillus subtilis [43]): Not Active | IC50 (Staphylococcus aureus [44]): 21.6 mg/L (≈ 49.3 µM) | IC50 (Staphylococcus aureus [45]): Not Active | IC50 (Pseudomonas aeruginosa [46]): Not Active
SMILES: O=C(NCCO)c1nc(-c2ccccc2)c2c(C(F)(F)F)cc(-c3ccccc3)nc2n1
MBC (Bacillus subtilis [1]): inactive | MIC (Raoultella planticola [6]): inactive | MBC (Staphylococcus aureus [9]): 62.4 mg/L (≈ 142 µM) | MBC (Staphylococcus aureus [10]): inactive | MBC (Micrococcus luteus [11]): inactive | MBC (Raoultella planticola [12]): inactive | MBC (Escherichia coli [13]): inactive | MBC (Pseudomonas aeruginosa [14]): inactive | MFC (Candida albicans [29]): 62.5 mg/L (≈ 143 µM) | MFC (Candida albicans [30]): inactive | MFC (Candida albicans [31]): inactive | MFC (Candida albicans [32]): inactive | MFC (Candida albicans [33]): 62.5 mg/L (≈ 143 µM) | MFC (Candida albicans [34]): 31.2 mg/L (≈ 71.2 µM) | MFC (Candida albicans [35]): 62.5 mg/L (≈ 143 µM) | MFC (Candida albicans [36]): 62.5 mg/L (≈ 143 µM) | MFC (Candida albicans [37]): 62.5 mg/L (≈ 143 µM) | MFC (Candida parapsilosis [38]): inactive | MFC ([Candida] aaseri [39]): 31.2 mg/L (≈ 71.2 µM) | MFC (Nakaseomyces glabratus [40]): 31.2 mg/L (≈ 71.2 µM) | MFC (Pichia kudriavzevii [41]): 62.5 mg/L (≈ 143 µM) | MFC (Pichia sporocuriosa [42]): 15.6 mg/L (≈ 35.6 µM) | IC50 (Raoultella planticola [47]): Not Active

MIC (Candida albicans [15]): 7.8 mg/L (≈ 18.7 µM) | MIC (Candida albicans [16]; MTCC 227, 24 h): 7.8 mg/L (≈ 18.7 µM) | MIC (Candida albicans [17]; MTCC 854, 24 h): 7.8 mg/L (≈ 18.7 µM) | MIC (Candida albicans [18]; MTCC 1637, 24 h): 7.8 mg/L (≈ 18.7 µM) | MIC (Candida albicans [19]): 7.8 mg/L (≈ 18.7 µM) | MIC (Candida albicans [20]): 7.8 mg/L (≈ 18.7 µM) | MIC (Candida albicans [21]): 7.8 mg/L (≈ 18.7 µM) | MIC (Candida albicans [22]): 7.8 mg/L (≈ 18.7 µM) | MIC (Candida albicans [23]): 7.8 mg/L (≈ 18.7 µM) | MIC (Candida parapsilosis [24]; MTCC 1744, 24 h): 7.8 mg/L (≈ 18.7 µM) | MIC ([Candida] aaseri [25]): 7.8 mg/L (≈ 18.7 µM) | MIC (Nakaseomyces glabratus [26]): 7.8 mg/L (≈ 18.7 µM) | MIC (Pichia kudriavzevii [27]): 7.8 mg/L (≈ 18.7 µM) | MIC (Pichia sporocuriosa [28]): 7.8 mg/L (≈ 18.7 µM)
SMILES: Clc1ccc(COC(Cn2ccnc2)c2ccc(Cl)cc2Cl)c(Cl)c1 (stereo unspecified) [MICONAZOLE]
inhibition (Candida albicans [48]): Dose-dependent effect | MFC (Candida albicans [29]): 7.8 mg/L (≈ 18.7 µM) | MFC (Candida albicans [30]; MTCC 227, 24 h): 7.8 mg/L (≈ 18.7 µM) | MFC (Candida albicans [31]; MTCC 854, 24 h): 15.6 mg/L (≈ 37.5 µM) | MFC (Candida albicans [32]; MTCC 1637, 24 h): 7.8 mg/L (≈ 18.7 µM) | MFC (Candida albicans [33]): 7.8 mg/L (≈ 18.7 µM) | MFC (Candida albicans [34]): 15.6 mg/L (≈ 37.5 µM) | MFC (Candida albicans [35]): 7.8 mg/L (≈ 18.7 µM) | MFC (Candida albicans [36]): 7.8 mg/L (≈ 18.7 µM) | MFC (Candida albicans [37]): 15.6 mg/L (≈ 37.5 µM) | MFC (Candida parapsilosis [38]; Lodderomyces parapsilosis, MTCC 1744, 24 h): 7.8 mg/L (≈ 18.7 µM) | MFC ([Candida] aaseri [39]): 15.6 mg/L (≈ 37.5 µM) | MFC (Nakaseomyces glabratus [40]): 7.8 mg/L (≈ 18.7 µM) | MFC (Pichia kudriavzevii [41]): 15.6 mg/L (≈ 37.5 µM) | MFC (Pichia sporocuriosa [42]): 15.6 mg/L (≈ 37.5 µM)
